According to ChEMBL document CHEMBL4507280 (2021):

How the values were obtained:
[1] = target: Ephrin type-A receptor 6 (Homo sapiens) (UniProt Q9UF33); conditions: Compound concentration 1000.0 nM
[2] = target: Beta-1 adrenergic receptor (Homo sapiens) (UniProt P08588); conditions: Compound concentration 10.0 uM
[3] = target: Casein kinase I isoform alpha-like (Homo sapiens) (UniProt Q8N752); conditions: Compound concentration 1000.0 nM
[4] = target: Transient receptor potential cation channel subfamily M member 6 (Homo sapiens) (UniProt Q9BX84); conditions: Compound concentration 1000.0 nM
[5] = target: Tyrosine-protein kinase FRK (Homo sapiens) (UniProt P42685); conditions: Compound concentration 1000.0 nM
[6] = target: Phosphorylase b kinase regulatory subunit alpha, liver isoform (Homo sapiens) (UniProt P46019); conditions: Compound concentration 1000.0 nM
Chain of Phosphorylase b kinase regulatory subunit alpha, liver isoform (Homo sapiens) (P46019 whole entry, canonical isoform): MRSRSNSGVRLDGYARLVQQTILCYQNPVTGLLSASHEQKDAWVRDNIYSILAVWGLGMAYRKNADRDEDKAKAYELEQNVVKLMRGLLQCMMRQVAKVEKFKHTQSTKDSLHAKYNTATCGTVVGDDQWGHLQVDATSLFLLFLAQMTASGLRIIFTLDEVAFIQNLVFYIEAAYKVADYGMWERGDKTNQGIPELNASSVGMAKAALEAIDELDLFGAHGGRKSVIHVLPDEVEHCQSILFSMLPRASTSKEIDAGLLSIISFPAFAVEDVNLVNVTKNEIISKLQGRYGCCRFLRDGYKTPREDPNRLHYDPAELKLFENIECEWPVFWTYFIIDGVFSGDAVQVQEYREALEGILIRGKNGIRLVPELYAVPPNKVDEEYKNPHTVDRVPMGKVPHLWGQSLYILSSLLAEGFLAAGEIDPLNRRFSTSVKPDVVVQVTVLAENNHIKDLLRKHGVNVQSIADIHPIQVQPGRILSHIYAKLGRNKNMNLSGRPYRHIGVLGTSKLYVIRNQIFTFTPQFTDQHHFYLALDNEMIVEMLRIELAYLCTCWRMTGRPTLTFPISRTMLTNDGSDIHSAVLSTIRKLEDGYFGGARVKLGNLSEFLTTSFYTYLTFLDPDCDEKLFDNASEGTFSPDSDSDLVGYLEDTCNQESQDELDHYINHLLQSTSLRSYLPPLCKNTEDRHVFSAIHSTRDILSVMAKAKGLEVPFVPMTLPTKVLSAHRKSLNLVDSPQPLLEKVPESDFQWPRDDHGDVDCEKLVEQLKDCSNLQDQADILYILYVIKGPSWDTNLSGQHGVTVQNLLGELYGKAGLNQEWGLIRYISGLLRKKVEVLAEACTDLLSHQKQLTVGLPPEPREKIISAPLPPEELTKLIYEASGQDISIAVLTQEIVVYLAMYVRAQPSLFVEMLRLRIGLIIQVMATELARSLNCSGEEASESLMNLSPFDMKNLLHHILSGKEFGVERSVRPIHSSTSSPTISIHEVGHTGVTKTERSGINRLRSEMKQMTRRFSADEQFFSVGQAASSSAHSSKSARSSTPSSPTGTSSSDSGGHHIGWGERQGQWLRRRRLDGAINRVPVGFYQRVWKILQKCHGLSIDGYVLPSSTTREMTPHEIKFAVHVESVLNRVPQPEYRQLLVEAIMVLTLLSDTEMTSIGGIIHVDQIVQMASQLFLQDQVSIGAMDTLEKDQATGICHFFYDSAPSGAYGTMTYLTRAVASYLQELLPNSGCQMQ

[7] = system: Mast/stem cell growth factor receptor Kit (Homo sapiens), P10721 [L576P]; conditions: Compound concentration 1000.0 nM
Chain of Mast/stem cell growth factor receptor Kit (Homo sapiens), P10721 [L576P] (P10721 whole entry L576P): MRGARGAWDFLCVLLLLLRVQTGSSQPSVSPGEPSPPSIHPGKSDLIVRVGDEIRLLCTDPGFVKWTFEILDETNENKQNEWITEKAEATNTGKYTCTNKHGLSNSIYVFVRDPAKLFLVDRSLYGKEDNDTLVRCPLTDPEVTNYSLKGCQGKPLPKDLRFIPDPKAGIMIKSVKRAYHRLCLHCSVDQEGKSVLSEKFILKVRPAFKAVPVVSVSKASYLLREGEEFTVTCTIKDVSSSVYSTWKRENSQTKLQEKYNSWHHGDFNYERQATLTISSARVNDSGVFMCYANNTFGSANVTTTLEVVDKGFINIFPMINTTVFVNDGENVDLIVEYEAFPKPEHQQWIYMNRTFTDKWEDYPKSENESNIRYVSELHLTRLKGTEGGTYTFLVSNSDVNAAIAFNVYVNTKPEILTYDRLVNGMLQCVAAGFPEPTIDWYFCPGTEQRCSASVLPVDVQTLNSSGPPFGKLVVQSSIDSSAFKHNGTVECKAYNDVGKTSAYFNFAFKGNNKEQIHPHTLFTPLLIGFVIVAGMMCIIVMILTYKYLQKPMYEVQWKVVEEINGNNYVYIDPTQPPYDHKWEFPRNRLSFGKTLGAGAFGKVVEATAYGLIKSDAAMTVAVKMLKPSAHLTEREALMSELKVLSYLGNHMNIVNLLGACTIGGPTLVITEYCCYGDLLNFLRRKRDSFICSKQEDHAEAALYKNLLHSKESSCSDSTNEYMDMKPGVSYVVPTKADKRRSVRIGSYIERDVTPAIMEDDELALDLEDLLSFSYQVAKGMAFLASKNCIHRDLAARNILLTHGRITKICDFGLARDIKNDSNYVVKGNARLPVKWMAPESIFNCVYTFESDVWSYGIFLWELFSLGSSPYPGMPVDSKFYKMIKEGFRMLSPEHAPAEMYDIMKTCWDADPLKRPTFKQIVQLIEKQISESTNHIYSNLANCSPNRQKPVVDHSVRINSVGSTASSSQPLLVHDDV

[8] = target: Atypical kinase COQ8A, mitochondrial (Homo sapiens) (UniProt Q8NI60); conditions: Compound concentration 1000.0 nM
[9] = system: Phosphatidylinositol 4,5-bisphosphate 3-kinase catalytic subunit alpha isoform (Homo sapiens), P42336 [Q546K]; conditions: Compound concentration 1000.0 nM
[10] = target: Serine/threonine-protein kinase 38 (Homo sapiens) (UniProt Q15208); conditions: Compound concentration 1000.0 nM
[11] = system: Epidermal growth factor receptor (Homo sapiens), P00533 [UNDEFINED MUTATION]; conditions: Compound concentration 1000.0 nM
[12] = target: G protein-coupled receptor kinase 3 (Homo sapiens) (UniProt P35626); conditions: Compound concentration 1000.0 nM
[13] = target: Cytoplasmic tyrosine-protein kinase BMX (Homo sapiens) (UniProt P51813); conditions: Compound concentration 1000.0 nM
[14] = system: Phosphatidylinositol 4,5-bisphosphate 3-kinase catalytic subunit alpha isoform (Homo sapiens), P42336 [C420R]; conditions: Compound concentration 1000.0 nM
[15] = target: Myosin-IIIb (Homo sapiens) (UniProt Q8WXR4); conditions: Compound concentration 1000.0 nM
[16] = target: Ribosomal protein S6 kinase alpha-1 (Homo sapiens) (UniProt Q15418); conditions: Compound concentration 1000.0 nM
[17] = target: AP2-associated protein kinase 1 (Homo sapiens) (UniProt Q2M2I8); conditions: Compound concentration 1000.0 nM
Chain of AP2-associated protein kinase 1 (Homo sapiens) (Q2M2I8 whole entry, looked up): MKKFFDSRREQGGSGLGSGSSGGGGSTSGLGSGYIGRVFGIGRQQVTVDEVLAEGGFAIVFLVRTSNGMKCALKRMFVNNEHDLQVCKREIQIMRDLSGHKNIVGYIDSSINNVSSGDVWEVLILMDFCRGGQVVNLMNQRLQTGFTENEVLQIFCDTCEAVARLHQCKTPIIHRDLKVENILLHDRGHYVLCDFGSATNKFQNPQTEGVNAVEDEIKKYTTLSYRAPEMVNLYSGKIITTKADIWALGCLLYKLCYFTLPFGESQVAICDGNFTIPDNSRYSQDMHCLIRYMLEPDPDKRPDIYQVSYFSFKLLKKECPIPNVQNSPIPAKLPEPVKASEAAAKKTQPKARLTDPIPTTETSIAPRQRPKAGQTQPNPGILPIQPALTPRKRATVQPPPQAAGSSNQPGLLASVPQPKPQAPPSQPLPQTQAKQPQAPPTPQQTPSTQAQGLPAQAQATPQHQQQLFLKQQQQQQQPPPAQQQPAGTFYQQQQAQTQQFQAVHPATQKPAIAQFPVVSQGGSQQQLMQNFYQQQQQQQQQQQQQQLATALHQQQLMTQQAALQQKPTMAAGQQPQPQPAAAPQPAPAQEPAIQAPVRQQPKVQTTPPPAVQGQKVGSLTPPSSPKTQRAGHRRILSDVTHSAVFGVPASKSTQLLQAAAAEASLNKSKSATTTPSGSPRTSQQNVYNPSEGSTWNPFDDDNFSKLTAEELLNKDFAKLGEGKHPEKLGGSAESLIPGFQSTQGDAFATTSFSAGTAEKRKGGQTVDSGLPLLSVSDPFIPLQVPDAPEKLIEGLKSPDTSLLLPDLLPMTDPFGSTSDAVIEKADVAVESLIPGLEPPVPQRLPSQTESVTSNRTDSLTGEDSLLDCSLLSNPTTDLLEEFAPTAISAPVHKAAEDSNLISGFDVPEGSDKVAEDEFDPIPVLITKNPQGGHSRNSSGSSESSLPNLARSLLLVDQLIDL

[18] = target: Tyrosine-protein kinase Tec (Homo sapiens) (UniProt P42680); conditions: Compound concentration 1000.0 nM
[19] = target: Serine/threonine-protein kinase PAK 2 (Homo sapiens) (UniProt Q13177); conditions: Compound concentration 1000.0 nM
[20] = target: TGF-beta receptor type-1 (Homo sapiens) (UniProt P36897); conditions: Compound concentration 1000.0 nM
[21] = target: Activated CDC42 kinase 1 (Homo sapiens) (UniProt Q07912); conditions: Compound concentration 1000.0 nM
[22] = target: Calcium/calmodulin-dependent protein kinase type II subunit gamma (Homo sapiens) (UniProt Q13555); conditions: Compound concentration 1000.0 nM
[23] = target: Hormonally up-regulated neu tumor-associated kinase (Homo sapiens) (UniProt P57058); conditions: Compound concentration 1000.0 nM
[24] = target: Testis-specific serine/threonine-protein kinase 1 (Homo sapiens) (UniProt Q9BXA7); conditions: Compound concentration 1000.0 nM
[25] = target: Muscarinic acetylcholine receptor M4 (Homo sapiens) (UniProt P08173); conditions: Compound concentration 10.0 uM
[26] = target: Cyclin-dependent kinase 4 (Homo sapiens) (UniProt P11802); conditions: Compound concentration 1000.0 nM
Chain of Cyclin-dependent kinase 4 (Homo sapiens) (P11802 whole entry): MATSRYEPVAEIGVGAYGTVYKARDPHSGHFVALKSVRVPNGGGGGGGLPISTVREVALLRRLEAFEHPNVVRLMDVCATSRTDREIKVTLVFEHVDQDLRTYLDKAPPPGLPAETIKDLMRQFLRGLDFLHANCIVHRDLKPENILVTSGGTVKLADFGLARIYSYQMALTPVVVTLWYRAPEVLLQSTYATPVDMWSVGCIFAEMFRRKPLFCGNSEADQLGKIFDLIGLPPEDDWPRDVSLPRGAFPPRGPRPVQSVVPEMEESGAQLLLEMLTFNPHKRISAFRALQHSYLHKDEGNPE

[27] = target: cGMP-dependent protein kinase 1 (Homo sapiens) (UniProt Q13976); conditions: Compound concentration 1000.0 nM
Chain of cGMP-dependent protein kinase 1 (Homo sapiens) (Q13976 whole entry): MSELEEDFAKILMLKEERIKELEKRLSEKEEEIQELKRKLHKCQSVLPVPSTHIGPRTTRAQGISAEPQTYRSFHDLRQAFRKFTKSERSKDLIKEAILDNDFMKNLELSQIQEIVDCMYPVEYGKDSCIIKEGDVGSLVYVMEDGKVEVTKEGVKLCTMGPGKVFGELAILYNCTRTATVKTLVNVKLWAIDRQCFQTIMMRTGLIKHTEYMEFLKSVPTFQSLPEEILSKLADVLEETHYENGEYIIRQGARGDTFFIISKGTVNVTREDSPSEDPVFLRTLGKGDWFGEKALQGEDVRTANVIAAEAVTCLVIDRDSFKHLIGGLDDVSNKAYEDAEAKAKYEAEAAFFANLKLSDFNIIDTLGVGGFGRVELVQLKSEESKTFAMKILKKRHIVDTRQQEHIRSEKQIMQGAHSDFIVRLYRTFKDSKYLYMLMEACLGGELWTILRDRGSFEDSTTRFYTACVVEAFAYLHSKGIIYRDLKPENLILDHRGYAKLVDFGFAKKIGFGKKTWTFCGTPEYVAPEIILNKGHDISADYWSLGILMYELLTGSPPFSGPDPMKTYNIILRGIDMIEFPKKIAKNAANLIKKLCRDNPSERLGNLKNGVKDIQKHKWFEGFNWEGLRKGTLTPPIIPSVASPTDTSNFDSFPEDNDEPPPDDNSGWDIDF

[28] = target: GABA-A receptor; anion channel (Rattus norvegicus) (UniProt O09028+P15431+P18506+P18508+P19969+P20236+P23574+P23576+P28471+P28473+P30191+P62813+P63079+P63138+Q91ZM7+Q9ES14); conditions: Compound concentration 10.0 uM
[29] = target: Serine/threonine-protein kinase Nek1 (Homo sapiens) (UniProt Q96PY6); conditions: Compound concentration 1000.0 nM
[30] = target: Mitogen-activated protein kinase 9 (Homo sapiens) (UniProt P45984); conditions: Compound concentration 1000.0 nM
[31] = target: SRSF protein kinase 1 (Homo sapiens) (UniProt Q96SB4); conditions: Compound concentration 1000.0 nM
[32] = target: Non-receptor tyrosine-protein kinase TYK2 (Homo sapiens) (UniProt P29597); conditions: Compound concentration 1000.0 nM
[33] = target: Cyclin-dependent kinase 8 (Homo sapiens) (UniProt P49336); conditions: Compound concentration 1000.0 nM
[34] = target: BDNF/NT-3 growth factors receptor (Homo sapiens) (UniProt Q16620); conditions: Compound concentration 1000.0 nM
[35] = target: Aurora kinase C (Homo sapiens) (UniProt Q9UQB9); conditions: Compound concentration 1000.0 nM
[36] = target: Serine/threonine-protein kinase 24 (Homo sapiens) (UniProt Q9Y6E0); conditions: Compound concentration 1000.0 nM
Chain of Serine/threonine-protein kinase 24 (Homo sapiens) (Q9Y6E0 whole entry, looked up): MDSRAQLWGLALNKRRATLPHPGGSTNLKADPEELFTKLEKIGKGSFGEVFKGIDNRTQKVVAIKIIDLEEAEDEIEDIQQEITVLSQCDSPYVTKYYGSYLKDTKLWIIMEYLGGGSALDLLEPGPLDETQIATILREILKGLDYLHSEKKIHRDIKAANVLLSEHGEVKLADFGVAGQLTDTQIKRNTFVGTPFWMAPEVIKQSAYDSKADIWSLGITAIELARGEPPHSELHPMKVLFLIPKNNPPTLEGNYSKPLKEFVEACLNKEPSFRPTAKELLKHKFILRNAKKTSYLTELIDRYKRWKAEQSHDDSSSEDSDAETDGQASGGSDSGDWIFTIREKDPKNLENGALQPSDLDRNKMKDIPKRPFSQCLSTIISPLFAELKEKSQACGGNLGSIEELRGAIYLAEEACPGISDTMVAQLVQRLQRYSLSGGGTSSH

[37] = target: T1, Alpha-1A adrenergic receptor (Homo sapiens) (UniProt P35348); conditions: Compound concentration 10.0 uM
T1 sequence (whole entry): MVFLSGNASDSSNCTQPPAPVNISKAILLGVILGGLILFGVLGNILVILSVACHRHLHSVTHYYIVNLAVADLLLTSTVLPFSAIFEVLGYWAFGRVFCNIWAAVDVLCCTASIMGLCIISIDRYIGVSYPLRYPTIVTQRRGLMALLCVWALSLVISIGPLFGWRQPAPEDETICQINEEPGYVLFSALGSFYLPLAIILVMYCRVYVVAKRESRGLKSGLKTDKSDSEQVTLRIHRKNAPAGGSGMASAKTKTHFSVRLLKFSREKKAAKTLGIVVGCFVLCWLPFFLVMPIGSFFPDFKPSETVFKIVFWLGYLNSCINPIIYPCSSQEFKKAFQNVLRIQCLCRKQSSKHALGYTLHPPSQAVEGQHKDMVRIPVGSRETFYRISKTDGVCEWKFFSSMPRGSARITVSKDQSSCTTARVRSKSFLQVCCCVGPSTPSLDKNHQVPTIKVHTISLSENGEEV

Chain of Beta-1 adrenergic receptor (Homo sapiens) (P08588 whole entry, looked up, canonical isoform): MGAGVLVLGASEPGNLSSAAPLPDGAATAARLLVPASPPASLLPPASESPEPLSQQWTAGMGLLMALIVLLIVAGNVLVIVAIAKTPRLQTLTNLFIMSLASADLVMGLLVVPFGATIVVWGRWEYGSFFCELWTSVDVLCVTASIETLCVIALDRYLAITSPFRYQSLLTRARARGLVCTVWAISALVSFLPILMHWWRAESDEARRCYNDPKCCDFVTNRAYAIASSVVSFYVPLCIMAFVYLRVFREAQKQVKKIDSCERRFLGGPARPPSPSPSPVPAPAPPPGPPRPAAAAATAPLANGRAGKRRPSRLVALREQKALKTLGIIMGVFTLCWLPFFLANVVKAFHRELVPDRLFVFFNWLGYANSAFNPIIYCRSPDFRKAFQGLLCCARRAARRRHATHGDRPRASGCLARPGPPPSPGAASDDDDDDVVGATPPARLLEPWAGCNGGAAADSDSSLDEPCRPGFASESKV

CCC(=O)N[C@H]1CC[C@@H](C(=O)N(C)c2ccc(-c3nc4ccccc4o3)cc2)C1 [BI 99179]
inactive: residual activity [1] 76% | inhibition [2] -4.07% | residual activity [3] 100% | residual activity [4] 76% | residual activity [5] 100% | residual activity [6] 100% | residual activity [7] 61% | residual activity [8] 100% | residual activity [9] 91% | residual activity [10] 77% | residual activity [11] 100% | residual activity [12] 80% | residual activity [13] 100% | residual activity [14] 92% | residual activity [15] 98% | residual activity [16] 100% | residual activity [17] 100% | residual activity [18] 100% | residual activity [19] 100% | residual activity [20] 100% | residual activity [21] 84% | residual activity [22] 95% | residual activity [23] 100% | residual activity [24] 91% | inhibition [25] 28.9% | residual activity [26] 79% | residual activity [27] 100% | inhibition [28] 23.2% | residual activity [29] 100% | residual activity [30] 79% | residual activity [31] 100% | residual activity [32] 95% | residual activity [33] 100% | residual activity [34] 100% | residual activity [35] 100% | residual activity [36] 95% | inhibition [37] 22.1%

CCC(=O)N[C@@H]1CC[C@H](C(=O)N(C)c2ccc(-c3nc4ccccc4o3)cc2)C1 [BI 99990]
inactive: residual activity [1] 100% | inhibition [2] -4.55% | residual activity [3] 100% | residual activity [4] 84% | residual activity [5] 100% | residual activity [6] 100% | residual activity [7] 100% | residual activity [8] 99% | residual activity [9] 100% | residual activity [10] 80% | residual activity [11] 88% | residual activity [12] 100% | residual activity [13] 98% | residual activity [14] 70% | residual activity [15] 100% | residual activity [16] 100% | residual activity [17] 100% | residual activity [18] 100% | residual activity [19] 86% | residual activity [20] 95% | residual activity [21] 100% | residual activity [22] 100% | residual activity [23] 100% | residual activity [24] 76% | inhibition [25] 5.19% | residual activity [26] 96% | residual activity [27] 100% | inhibition [28] 40.3% | residual activity [29] 100% | residual activity [30] 98% | residual activity [31] 100% | residual activity [32] 100% | residual activity [33] 100% | residual activity [34] 100% | residual activity [35] 100% | residual activity [36] 100% | inhibition [37] 19.4%
